From patent US20210113640A1, “COMPOSITION FOR PROMOTING HAIR GROWTH OR PREVENTING HAIR LOSS CONTAINING EXTRACT OF ASTER AGERATOIDES” (KOREA INSTITUTE OF SCIENCE AND TECHNOLOGY, priority 2019, published 2021)

Tests used:
[1] = system: hair growth in C57BL/6 mice skin tissue; assay: Induction of hair growth phase in depilated C57BL/6 mice (topical, 30 days); type: in vivo; conditions: applied once a day for 30 days
Method: 6-week-old C57BL/6 female mice with white or pink back skin were used as experimental animals and the experiment was conducted according to guidelines for the management and use of laboratory animals approved by the Animal Research Ethics Committee of the Korea Institute of Science and Technology (approval number: […]-2018-081). […] The back hairs of the mice were depilated using an electric shaver and a test substance was applied to the depilated area once a day for 30 days. […] 30 days after treatment with the sample, the hairs were randomly collected, the thickness and length of the hairs were measured, and the results are shown in FIG. 3 and Table 1. On the last day of application of the test substance, the mice were sacrificed to obtain skin tissues, and then tissues were fixed with paraffin and then prepared into tissue slices. These were stained with hematoxylin and eosin (H&E) and observed under a microscope (100×), and the results are shown in FIG. 4.

[2] = system: lipid peroxide production in liver homogenate; assay: Inhibition of lipid peroxide formation in rat liver homogenate (TBA method); type: biochemical, Sprague-Dawley rats; conditions: positive controls, FeSO4/ascorbic acid, 37° C., 30 minutes, mean ± standard error, read-out: Lipid peroxide production inhibitory activity IC50
Method: Lipid peroxide is a substance produced by peroxidation of lipids through various oxidation reactions. Reactive oxygen species, free radicals and the like oxidize phospholipids of cell membranes containing great amounts of unsaturated fatty acids, producing lipid peroxides in the cell membranes. […] The animals used in the experiment were male Sprague-Dawley rats, and only water was supplied for 24 hours before the experiment.

[3] = A. ageratoides 1%, minoxidil 3%

Row | Compound | hair thickness ([1]; 1% Aster ageratoides extract, 3% minoxidil) [μm] | Hair length [1, 3] | Hair width [1, 3] [µm] | Hair length ([1]; A. ageratoides 1%, minoxidil 3%, listed as positive control) [mm] | IC50 [2] [µM]
1 | Nc1cc(N2CCCCC2)nc(N)[n+]1[O-] [Minoxidil, minoxidil] | 53.19±4.04 | 6-9 mm | 53.2 ± 4.04 | 6 to 9 | 
2 | Cc1c(C)c2c(c(C)c1O)CCC(C)(C(=O)O)O2 (centres unmarked) [Trolox] |  |  |  |  | > 100
